The text below walks through data of article PMC5145767 (Neuron, 2016).

Test [1] deals with T1, DGluR1A (Drosophila melanogaster, UniProt Q03445). Nature of the test: DGluR1A coexpressed with Apis Stg1 in Xenopus oocytes. The test is classed as cell-based. The settings on record: for activation, % of the response to glutamate recorded in the same cell: agonists 3 mM.
The subject of test [2] is DGluR1A ligand-binding domain. On the set-up: species or system Drosophila melanogaster. The settings on record: ligand 1 mM, trypsin 1:20.
Test [3] has as its system DKaiR1D ligand-binding domain. Set-up: species or system Drosophila melanogaster. The settings on record: ligand 1 mM, trypsin 1:20, 60 min.
For test [4], the target named is T2, DKaiR1D (Drosophila melanogaster, UniProt Q9VDH5). The format is cell-based. The settings on record: for activation of DKaiR1D: Xenopus oocytes, ligands of b17 all applied at 10 mM.
For test [5], the target named is DGluR1A Y792T (Drosophila melanogaster, UniProt Q03445, Y792T). Nature of the test: Receptor activity of DGluR1A Y792T mutant. The settings on record: Figure S8C. The test is classed as cell-based.
Test [6] has as its system DGluR1A Y792T. The test is described as follows: Proteolysis protection assay of DGluR1A Y792T mutant. The format is binding, Drosophila melanogaster. The settings on record: Figure S8B.
The next test concerns GluK2. The settings on record: ref Plested and Mayer, 2007; cited from earlier work.
Test [7] deals with T2, DKaiR1D. The test is classed as cell-based.
Test [8] has as its target T1, DGluR1A. The settings on record: 1992, cited from earlier work.
For a further test, the system named is DKaiR1D Q604R. Nature of the test: DKaiR1D Q604R mutant responses in Xenopus oocytes. The format is cell-based, Drosophila melanogaster. The settings on record: 3 μM toxin, 3 mM glutamate, -60 mV.
The mark [9] stands for this setting: 10 mM glutamate, decay fit by sum of two exponentials.
[10] abbreviates: NaCl, NaMeSO3 exchange experiment.

Like-named read-outs stand apart in the source and are kept apart here.

T1 sequence (Q03445 28-991): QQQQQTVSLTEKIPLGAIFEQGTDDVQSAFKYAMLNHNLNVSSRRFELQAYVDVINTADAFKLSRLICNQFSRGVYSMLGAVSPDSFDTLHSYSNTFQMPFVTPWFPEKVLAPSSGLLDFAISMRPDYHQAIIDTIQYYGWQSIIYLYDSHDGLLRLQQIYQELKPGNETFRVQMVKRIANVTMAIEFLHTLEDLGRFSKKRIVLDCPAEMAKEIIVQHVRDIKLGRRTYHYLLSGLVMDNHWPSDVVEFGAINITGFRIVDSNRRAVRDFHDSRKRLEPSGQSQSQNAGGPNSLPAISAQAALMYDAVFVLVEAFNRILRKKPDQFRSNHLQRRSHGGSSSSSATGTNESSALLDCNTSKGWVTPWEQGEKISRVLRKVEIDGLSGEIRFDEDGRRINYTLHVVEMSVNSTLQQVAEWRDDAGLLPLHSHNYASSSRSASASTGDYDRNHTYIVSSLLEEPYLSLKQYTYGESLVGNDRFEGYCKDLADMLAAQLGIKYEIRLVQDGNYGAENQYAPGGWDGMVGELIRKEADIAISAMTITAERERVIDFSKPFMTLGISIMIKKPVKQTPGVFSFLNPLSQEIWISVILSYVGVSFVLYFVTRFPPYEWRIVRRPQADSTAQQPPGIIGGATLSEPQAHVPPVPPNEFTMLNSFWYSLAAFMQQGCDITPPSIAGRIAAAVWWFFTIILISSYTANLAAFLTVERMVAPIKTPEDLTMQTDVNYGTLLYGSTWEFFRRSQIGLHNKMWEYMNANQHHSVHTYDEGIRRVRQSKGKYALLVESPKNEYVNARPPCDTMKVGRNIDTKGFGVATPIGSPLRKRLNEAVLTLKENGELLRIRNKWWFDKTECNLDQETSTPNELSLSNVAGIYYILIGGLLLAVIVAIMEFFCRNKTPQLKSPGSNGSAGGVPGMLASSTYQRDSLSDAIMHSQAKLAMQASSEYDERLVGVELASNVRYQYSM
DGluR1A Y792T (Drosophila melanogaster, UniProt Q03445, Y792T), sequence (Q03445 28-991 Y792T): as the sequence (Q03445 28-991) above, with Y765T counted along it

For `Cc1o[nH]c(=O)c1CC(N)C(=O)O` (centres unmarked) [AMPA], at DGluR1A [1] (-60 mV, Apis Stg1), the “activation, % of the response to glutamate recorded in the same cell” value (shortened to “activation, % of the response”) came to 40 ± 4%. Besides, the “protection from digestion by trypsin” value in test [2] is “but not AMPA, NMDA, aspartate or AP5 were protective”; in test [3], “inactive”. Further, the “activation of DKaiR1D” value at DKaiR1D [4] (-60 mV) is “but not AMPA, aspartate or NMDA produced activation”. The receptor activation entry on DGluR1A Y792T [5] is “but not AMPA, binds strongly and produces full receptor activation”. Moreover, the “binding in proteolysis protection assay” value in the test on DGluR1A Y792T [6] was “but not AMPA, binds strongly”.

As for `NC(CCCP(=O)(O)O)C(=O)O` (centres unmarked) [AP5], the “protection from digestion by trypsin” value in test [2] was “but not AMPA, NMDA, aspartate or AP5 were protective”; in test [3] it was “protective”. The “activation of DKaiR1D” value on DKaiR1D [4] (-60 mV) is reported as “nor AP5 (Figure S5) produced DKaiR1D activation”.

With `N#Cc1cc2[nH]c(=O)c(=O)[nH]c2cc1[N+](=O)[O-]` [CNQX], the “protection from digestion by trypsin” value is “protective” in test [2] and “weak protection” in [3]. Besides, at DKaiR1D [4] (antagonist 10 mM, -60 mV), the “block of responses to 10 mM glutamate” value is given as 34.3 ± 3.0%.

In the case of `N[C@H](CCCP(=O)(O)O)C(=O)O` [D-AP5, 2(R)-amino-5-phosphonopentanoic acid], at DKaiR1D [4], the “block of responses to 1 mM glutamate” value came out at 22.7 ± 0.8% and the “block of responses to 10 mM glutamate” value came to 16.6 ± 1.0%.

Take `N[C@@H](CCCP(=O)(O)O)C(=O)O` [L-AP5]: on DKaiR1D [4] (antagonist 10 mM, -60 mV), the “block of responses to 1 mM glutamate” value is listed as 35.7 ± 1.4% and the “block of responses to 10 mM glutamate” value is 11.7 ± 1.2%.

On to `CN[C@H](CC(=O)O)C(=O)O` [NMDA], for which the “activation of DGluR1A” value on DGluR1A [1] (agonist 3 mM, -60 mV, Apis Stg1) is recorded as “no activation”. Further, the “protection from digestion by trypsin” value in test [2] was “but not AMPA, NMDA, aspartate or AP5 were protective”; in [3], “protective”. For the same compound, at DKaiR1D [4], inhibition was half-maximal at 900 µM (IC50). Besides, the “activation of DKaiR1D” value on DKaiR1D [4] (-60 mV) is recorded as “but not AMPA, aspartate or NMDA produced activation”. At DKaiR1D [4] (antagonist 10 mM, -60 mV), the “block of responses to 10 mM glutamate” value is 79.2 ± 2.2%.

Take `N[C@@H](CC(=O)O)C(=O)O` [aspartate]: on DGluR1A [1] (-60 mV, Apis Stg1), the “activation, % of the response” value worked out at 28 ± 8%. Moreover, in [3], the “protection from digestion by trypsin” value is listed as “to a lesser extent aspartate were also protective”. The “activation of DKaiR1D” value at DKaiR1D [4] (-60 mV) is given as “but not AMPA, aspartate or NMDA produced activation”.

In the case of `N[C@@H](CCC(=O)O)C(=O)O` [glutamate], the concentration for a half-maximal effect (EC50) on DGluR1A [1] turned out to be 136 ± 8 µM; on DKaiR1D [4], 10700 ± 500 µM. In addition, the “protection from digestion by trypsin” value is reported as “protective” in [2] and “prevented digestion by trypsin” in test [3]. Besides, in the test on GluK2, the “increase of rate of onset of desensitization on exchange of NaMeSO3 for NaCl” value is 7 fold. For the same compound, the deactivation rate constant on DKaiR1D [7] (10 mM glutamate applied for 1 ms) was 2523 ± 218 s⁻¹. Moreover, the “10–90% rise time” value at DKaiR1D [7] (10 mM glutamate applied for 1 ms, outside-out patch) came out at 217 ± 6 μs. In addition, the desensitization kfast on DKaiR1D [7] (setting [9]) came to 1317 ± 105 s⁻¹. Further, the desensitization kslow on DKaiR1D [7] (setting [9]) was found to be 107 ± 22 s⁻¹. Also, the “onset of desensitization kfast” value on DKaiR1D [7] (CsCl) is 1884 ± 99 s⁻¹; at DKaiR1D [7] (NaCl, CsCl exchange experiment) it was 1504 ± 90 s⁻¹; on DKaiR1D [7] (setting [10]), 1970 ± 88 s⁻¹; on DKaiR1D [7] (NaMeSO3), 1985 ± 68 s⁻¹. In addition, the “onset of desensitization kslow” value on DKaiR1D [7] (CsCl) came to 192 ± 28 s⁻¹; at DKaiR1D [7] (NaCl, CsCl exchange experiment), 165 ± 27 s⁻¹; on DKaiR1D [7] (setting [10]) it was 190 ± 31 s⁻¹; at DKaiR1D [7] (NaMeSO3) it was 236 ± 39 s⁻¹. Besides, the “recovery from desensitization kslow” value on DKaiR1D [7] (twin pulse protocol, sum of two exponentials) is 9.9 s⁻¹. Besides, the “activation of DKaiR1D” value at DKaiR1D [4] (-60 mV) was “produced activation”.

For `C=C(C)[C@H]1CN[C@H](C(=O)O)[C@H]1CC(=O)O` [kainate], the EC50 was 125 ± 4 µM at DGluR1A [1] and 75 µM at DGluR1A [8] (read-out: EC50 for activation, prior studies ref Ultsch et al.). The “protection from digestion by trypsin” value is given as “protective” in test [2] and “prevented digestion by trypsin” in test [3]. Besides, the “activation of DKaiR1D” value at DKaiR1D [4] (-60 mV) is “produced activation”.

As for `N[C@@H](Cn1oc(=O)[nH]c1=O)C(=O)O` [quisqualate, quisqualic acid], the “activation, % of the response” value on DGluR1A [1] (-60 mV, Apis Stg1) was found to be 41 ± 3%. Also, the “protection from digestion by trypsin” value is on record as “protective” in test [2] and “prevented digestion by trypsin” in test [3]. Moreover, on DKaiR1D [4], the “amplitude of responses relative to those to glutamate” value came out at 0.78 ± 0.03. Moreover, the “activation of DKaiR1D” value at DKaiR1D [4] (-60 mV) was “produced activation”. Further, at DGluR1A Y792T [5], the receptor activation result is “produces full receptor activation”. Further, the “binding in proteolysis protection assay” value with DGluR1A Y792T [6] is recorded as “binds strongly”.

As for philanthotoxin-433, the “block of Q604R mutant responses to glutamate” value in the test on DKaiR1D Q604R was “did not block”. In addition, the “block of wild type responses to glutamate by extracellular toxin” value on DKaiR1D [4] (3 μM toxin, 3 mM glutamate, -60 mV, several minutes for full recovery) is on record as “blocked”. For the same compound, the “inhibition of DGluR1A” value on DGluR1A [8] (ref Ultsch et al.) was “inhibition of DGluR1A by philanthotoxin”.

For orientation: IC50 means the concentration that gives 50% inhibition. Low values mean greater potency, high ones weaker potency. Broadly, the EC50 is the concentration that produces a half-maximal response.
